Values quoted from earlier work as cited in patent US20220211847A1, “COMBINATION OF MONALIZUMAB, DURVALUMAB, CHEMOTHERAPY AND BEVACIZUMAB OR CETUXIMAB FOR THE TREATMENT OF COLORECTAL CANCER” (MEDIMMUNE LIMITED, priority 2019, published 2022).
Like-named read-outs stand apart in the source and are kept apart here.

How the values were obtained:
[1] = tested on: microsatellite instability-high CRC or mismatch repair deficient CRC; settings: monotherapy; MSI-high or mismatch repair deficient CRC
[2] = tested on: CRC; settings: similar population
[3] = tested on: unresectable metastatic disease (mCRC); settings: added to oxaliplatin-based regimens
[4] = tested on: MSI high CRCs and MSS CRCs

Compound: nivolumab
- ORR [1]: 28%

Compound: CNC(=O)c1cc(Oc2ccc(NC(=O)Nc3ccc(Cl)c(C(F)(F)F)c3)c(F)c2)ccn1 [regorafenib]
- median OS [2]: 6.4 months

Compound: bevacizumab: recombinant humanized monoclonal antibody directed against human vascular endothelial growth factor (VEGF)
- increase in Progression-free survival (PFS) compared with regimens without bevacizumab [3]: 1.4 months
- difference in Overall Survival (OS) ([3]; not statistically significant): 1.4 months

Compound: pembrolizumab: humanized monoclonal IgG4 antibody directed against human cell surface receptor PD-1
- objective response rate (ORR) ([4]; 10 mg/kg Q2W, microsatellite proficient CRC): 0%
- immune-related objective response rate ([4]; MSI high CRCs): 40%
- immune-related progression free survival rate ([4]; MSI high CRCs): 78%
- patients who experienced disease progression ([4]; MSI-H CRC): 1 of 10
- patients who experienced disease progression ([4]; MSS CRC): 11/18
- immune-related objective response rate ([4]; MSS CRCs): 0%
- immune-related progression free survival rate ([4]; MSS CRCs): 11%
